Assay results reported in US20230286973A1, “PROTEIN SECRETION INHIBITORS” (KEZAR LIFE SCIENCES, priority 2020, published 2023).

Tests used:
[1] = Liver Microsome Stability Assay (mouse); conditions: mouse liver microsomes, with NADPH, 1.0 uM compound
Description: (§1) Stability of a compound was assessed in the presence of liver microsomes from various sources—mouse, rat, monkey and human liver microsomes. 1.0 uM compound, 0.4% DMSO in 0.1 M Potassium Phosphate with 1.0 mg/mL liver microsomes, were incubated at 37° C. with or without 1 mM NADPH. The samples were quenched at 0, and 30 minutes.

[2] = system: PD1-ss+10aa/Gaussia Luciferase; assay: Dox-Induced PD1-ss-Gluc Assay; format: cell-based; conditions: 24 hr Dox induction; 293FRT/TO cells; read-out: 24 hr Dox Inducible PD1ssGluc 293FRT/TO: Mean IC50
In short: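 Compounds were added in DMSO/media with doxycycline and incubated at 37 °C, 5% CO2, on 293 T-REx cells plated one day earlier. These cells stably express, under tetracycline-regulated control, a Gaussia luciferase fused to the PD1 signal peptide plus 10 residues. Structures drawn without stereochemistry were tested as stereoisomer mixtures.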

[3] = Liver Microsome Stability Assay (human); conditions: human liver microsomes, with NADPH, 1.0 uM compound
Description: as §1

[4] = system: multiple myeloma cell line U266B1; assay: U266 Cell Viability Assay; format: cell-based, human; conditions: Homo sapiens, U-266, 48 h, U266B1 cells, Celltiter-Glo
In short: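 CellTiter-Glo luminescence was read after a 48 h compound exposure (37 °C, 5% CO2) of human U266B1 myeloma cells grown in 10% FBS-supplemented RPMI 1640. Data for structures shown without defined stereochemistry refer to stereoisomer mixtures.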

[5] = system: IL-2-FL/Gaussia Luciferase; assay: Dox Induced IL2-FL-Gluc Assay; format: cell-based; conditions: for IC50: 24 hr Dox induction, 293FRT/TO cells, read-out: 24 hr Dox Inducible IL2FLGluc 293FRT/TO: Mean IC50; for 24 hr Dox Inducible IL2FLGluc 293FRT/TO: IL2/PD1: ratio of IL2FLGluc IC50 to PD1ssGluc IC50
In short: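 Compounds in DMSO/medium with doxycycline were applied to a 293 T-REx stable line expressing an IL-2 (aa 1-153)–Gaussia luciferase fusion under tetracycline-regulated control, cells seeded one day earlier; incubation at 37 °C, 5% CO2. Structures drawn without stereochemistry were tested as stereoisomer mixtures.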

[6] = system: TNFα-FL/Gaussia Luciferase; assay: Dox Induced TNFα-FL-Gluc Assay; format: cell-based; conditions: for IC50: 24 hr Dox induction, 293FRT/TO cells, read-out: 24 hr Dox Inducible TNFaFLGluc 293FRT/TO: Mean IC50; for 24 hr Dox Inducible TNFaFLGluc 293FRT/TO: TNF/PD1: ratio of TNFaFLGluc IC50 to PD1ssGluc IC50
In short: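 Compound was added with doxycycline to cells plated a day earlier, incubating at 37° C under 5% CO2. The reporter line is 293 T-REx expressing a TNFα (1-233)–Gaussia luciferase fusion under tetracycline-regulated control.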

[7] = Liver Microsome Stability Assay (monkey); conditions: monkey liver microsomes, with NADPH, 1.0 uM compound
Description: as §1

[8] = system: HER3-ss+4aa/Gaussia Luciferase; assay: Dox-Induced Her3-ss-Gluc Assay; format: cell-based; conditions: 24 hr Dox induction; 293FRT/TO cells; read-out: 24 hr Dox Inducible Her3(ss + 4)Gluc 293FRT/TO: Mean IC50
In short: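 Compounds were diluted in DMSO/media containing doxycycline. They were added to Flp-In 293 T-REx cells plated the previous day, then incubated at 37 °C under 5% CO2. These cells stably express, under T-REx control, Gaussia luciferase fused to the HER3 signal sequence plus 4 amino acids.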

[9] = system: multiple myeloma cell line NCI-H929; assay: H929 Cell Viability Assay; format: cell-based, human; conditions: Homo sapiens, NCI-H929, 48 h, NCI-H929 cells, Celltiter-Glo
In short: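 Luminescent CellTiter-Glo read-out of viability after a 48 h exposure (37° C, 5% CO2) of NCI-H929 myeloma cells to compound dilutions in RPMI 1640 plus 10% FBS. Data for structures drawn without stereochemistry refer to stereoisomer mixtures.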

[10] = Liver Microsome Stability Assay (rat); conditions: rat liver microsomes, with NADPH, 1.0 uM compound
Description: as §1

SMILES | Liver Microsome Stability (Multiple Species): Mouse - % Remaining after 30 min w/NADPH [1] [%] | IC50 [2] [nM] | Liver Microsome Stability (Multiple Species): Human - % Remaining after 30 min w/NADPH [3] [%] | EC50 [4] [nM] | IC50 [5] [nM] | IC50 [6] [nM] | Liver Microsome Stability (Multiple Species): Monkey - % Remaining after 30 min w/NADPH [7] [%] | IC50 [8] [nM] | EC50 [9] [nM] | Liver Microsome Stability (Multiple Species): Rat - % Remaining after 30 min w/NADPH [10] [%] | 24 hr Dox Inducible IL2FLGluc 293FRT/TO: IL2/PD1 [5] | 24 hr Dox Inducible TNFaFLGluc 293FRT/TO: TNF/PD1 [6]
CC(=O)N1CCCCC1c1ccc(N2CCC[C@@H]2c2csc(NC(=O)c3cccn3Cc3ccncc3)n2)cc1 (stereo partly drawn) [Compound A58, N-(4-((2R)-1-(4-(1-acetylpiperidin-2-yl)phenyl)pyrrolidin-2-yl)thiazol-2-yl)-1-(pyridin-4-ylmethyl)-1H-pyrrole-2-carboxamide] | 0.24 | 108 | 0.4 | 9990 | 296 | 1880 | 0.29 | 249 | 3340 | 4.13 | 2.7 | 17.4
O=C(Nc1nc([C@H]2CCCN2c2ccc(C3CCCCN3)cc2)cs1)c1cccn1Cc1ccncc1 (stereo partly drawn) [Compound A59, N-(4-((2R)-1-(4-(piperidin-2-yl)phenyl)pyrrolidin-2-yl)thiazol-2-yl)-1-(pyridin-4-ylmethyl)-1H-pyrrole-2-carboxamide] | 49.8 | 2180 | 0.62 | 6490 | 6960 | 22500 | 2.29 | 5060 | 16000 | 21.3 | 3.2 | 10.3
O=C(Nc1nc([C@H]2CCCN2c2ccccc2)cs1)c1cccn1Cc1cc(F)nc(F)c1 [Compound A60, (R)-1-((2,6-difluoropyridin-4-yl)methyl)-N-(4-(1-phenylpyrrolidin-2-yl)thiazol-2-yl)-1H-pyrrole-2-carboxamide] | 48.3 | 63.8 | 13.7 | > 25000 | 186 | 861 | 23.8 | 131 | 4720 | 19.7 | 2.9 | 13.5
O=C(Nc1nc([C@H]2CCCN2c2ccc(C3CCCNC3)cc2)cs1)c1cccn1Cc1ccncc1 (stereo partly drawn) [Compound A61, N-(4-((2R)-1-(4-(piperidin-3-yl)phenyl)pyrrolidin-2-yl)thiazol-2-yl)-1-(pyridin-4-ylmethyl)-1H-pyrrole-2-carboxamide] | 54.5 | 917 | 2.45 | 5520 | 3220 | 11600 | 5.11 | 1570 | 6290 | 22.8 | 3.5 | 12.7
CC(=O)N1CCCC(c2ccc(N3CCC[C@@H]3c3csc(NC(=O)c4cccn4Cc4ccncc4)n3)cc2)C1 (stereo partly drawn) [Compound A63, N-(4-((2R)-1-(4-(1-acetylpiperidin-3-yl)phenyl)pyrrolidin-2-yl)thiazol-2-yl)-1-(pyridin-4-ylmethyl)-1H-pyrrole-2-carboxamide] | 3.64 | 80 | 2.22 | > 25000 | 149 | 1060 | 1.18 | 130 | 1780 | 6.07 | 1.9 | 13.2

Continued, in another order:

Liver Microsome Stability (Multiple Species): Mouse - % Remaining after 30 min w/NADPH [1] [%] | IC50 [2] [nM] | Liver Microsome Stability (Multiple Species): Human - % Remaining after 30 min w/NADPH [3] [%] | EC50 [4] [nM] | IC50 [5] [nM] | IC50 [6] [nM] | Liver Microsome Stability (Multiple Species): Monkey - % Remaining after 30 min w/NADPH [7] [%] | IC50 [8] [nM] | EC50 [9] [nM] | Liver Microsome Stability (Multiple Species): Rat - % Remaining after 30 min w/NADPH [10] [%] | SMILES | 24 hr Dox Inducible IL2FLGluc 293FRT/TO: IL2/PD1 [5] | 24 hr Dox Inducible TNFaFLGluc 293FRT/TO: TNF/PD1 [6]
6.1 | 17.7 | 26.6 | > 25000 | 45.1 | 287 | 49.5 | 38.3 | 500 | 6.28 | O=C(Nc1nc([C@H]2CCCN2c2ccc(CO)cc2)cs1)c1cccn1Cc1ccncc1 [Compound A57, (R)-N-(4-(1-(4-(hydroxymethyl)phenyl)pyrrolidin-2-yl)thiazol-2-yl)-1-(pyridin-4-ylmethyl)-1H-pyrrole-2-carboxamide] | 2.5 | 16.2
52.7 | 15 | 34.3 | > 25000 | 29.8 | 251 | 21.4 | 35.7 | 373 | 45.1 | CC(=O)N1CCC(Oc2ccc(N3CCC[C@@H]3c3csc(NC(=O)c4cccn4Cc4ccnc(F)c4)n3)cc2)CC1 [Compound A62, (R)-N-(4-(1-(4-((1-acetylpiperidin-4-yl)oxy)phenyl)pyrrolidin-2-yl)thiazol-2-yl)-1-((2-fluoropyridin-4-yl)methyl)-1H-pyrrole-2-carboxamide] | 2 | 16.7
13.7 | 10.6 | 1.39 | > 25000 | 27 | 164 | 0.78 | 19.4 | 203 | 6.39 | CC(=O)NCc1ccc(N2CCC[C@@H]2c2csc(NC(=O)c3cccn3Cc3ccnc(F)c3)n2)cc1 [Compound A64, (R)-N-(4-(1-(4-(acetamidomethyl)phenyl)pyrrolidin-2-yl)thiazol-2-yl)-1-((2-fluoropyridin-4-yl)methyl)-1H-pyrrole-2-carboxamide] | 2.5 | 15.4
7.68 | 2.11 | 22.1 | > 25000 | 7.99 | 65.5 | 0.35 | 6.49 | 81.2 | 1.1 | NC(=O)c1ccc(N2CCC[C@@H]2c2csc(NC(=O)c3cccn3Cc3ccnc(F)c3)n2)cc1 [Compound A65, (R)-N-(4-(1-(4-carbamoylphenyl)pyrrolidin-2-yl)thiazol-2-yl)-1-((2-fluoropyridin-4-yl)methyl)-1H-pyrrole-2-carboxamide] | 3.8 | 31
